Laboratory results published in PubChem BioAssay AID1918995 (Molecular Pharmacology Branch, DTP, NCI, 2023).
pIC50: −log10 of the molar value.

Test system: 324938-238-R-J1-PDC complex spheroid growth, % test/control
Assay: Anticancer human tumor 324938-238-R-J1-PDC patient-derived bladder carcinoma cell line growth inhibition [AhR]
Conditions: for pIC50: curve of first compound; for viability, T/C: stronger effect = lower value; active = viability on the fitted dose curve at most 10% of control; inactive = the rest
Procedure, shortened: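 Complex tumor spheroids co-cultured with HUVEC and human MSC stroma; AhR antagonists tested in combination with standard-of-care and investigational agents. Top concentration at or near clinical Cmax (else 10 microM), half-log dilutions; growth expressed as percent test/control.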

[1] = second compound 0.1 µM, first compound 0.0316 µM
[2] = second compound 0.1 µM, first compound 0.1 µM
[3] = second compound 0.1 µM, first compound 0.316 µM
[4] = second compound 0.1 µM, first compound 1 µM
[5] = second compound 0.1 µM, first compound 3.16 µM
[6] = second compound 0.1 µM, first compound 10 µM
[7] = second compound 0.316 µM, first compound 0.0316 µM
[8] = second compound 0.316 µM, first compound 0.1 µM
[9] = second compound 0.316 µM, first compound 0.316 µM
[10] = second compound 0.316 µM, first compound 1 µM
[11] = second compound 0.316 µM, first compound 3.16 µM
[12] = second compound 0.316 µM, first compound 10 µM
[13] = second compound 1 µM, first compound 0.0316 µM
[14] = second compound 1 µM, first compound 0.1 µM
[15] = second compound 1 µM, first compound 0.316 µM
[16] = second compound 1 µM, first compound 1 µM
[17] = second compound 1 µM, first compound 3.16 µM
[18] = second compound 1 µM, first compound 10 µM
[19] = second compound 3.16 µM, first compound 0.0316 µM
[20] = second compound 3.16 µM, first compound 0.1 µM
[21] = second compound 3.16 µM, first compound 0.316 µM
[22] = second compound 3.16 µM, first compound 1 µM
[23] = second compound 3.16 µM, first compound 3.16 µM
[24] = second compound 3.16 µM, first compound 10 µM
[25] = second compound 10 µM, first compound 0.0316 µM
[26] = second compound 10 µM, first compound 0.1 µM
[27] = second compound 10 µM, first compound 0.316 µM
[28] = second compound 10 µM, first compound 1 µM
[29] = second compound 10 µM, first compound 3.16 µM
[30] = second compound 10 µM, first compound 10 µM
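Note: spheroids exposed to agents for seven days before viability read.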

CC(C)c1c(-c2ccccc2)nc2c(C#N)c[nH]n2c1=O + Cc1ccccc1N=Nc1ccc(NC(=O)c2ccnn2C)c(C)c1
inactive: viability, T/C [1] 101% | viability, T/C [2] 91.3% | viability, T/C [3] 95.5% | viability, T/C [4] 83.9% | viability, T/C [5] 92.1% | viability, T/C [6] 73.9% | viability, T/C [7] 87.3% | viability, T/C [8] 92.9% | viability, T/C [9] 90.7% | viability, T/C [10] 81.6% | viability, T/C [11] 75.3% | viability, T/C [12] 68% | viability, T/C [13] 80.1% | viability, T/C [14] 91.8% | viability, T/C [15] 76% | viability, T/C [16] 80.5% | viability, T/C [17] 68.3% | viability, T/C [18] 65.8% | viability, T/C [19] 80.1% | viability, T/C [20] 81.4% | viability, T/C [21] 64.9% | viability, T/C [22] 67.5% | viability, T/C [23] 65.7% | viability, T/C [24] 56% | viability, T/C [25] 70.8% | viability, T/C [26] 75.2% | viability, T/C [27] 79.4% | viability, T/C [28] 65.1% | viability, T/C [29] 54.4% | viability, T/C [30] 61%
< 5.00: pIC50 (second compound 0.1 µM) | pIC50 (second compound 0.316 µM) | pIC50 (second compound 1 µM) | pIC50 (second compound 3.16 µM) | pIC50 (second compound 10 µM)

CC1COCCN1c1cc(-c2ccnn2C)c2ccnc(-c3ccn[nH]3)c2n1 (stereo not given) + Cc1ccccc1N=Nc1ccc(NC(=O)c2ccnn2C)c(C)c1
inactive: viability, T/C (second compound 0.1 µM, first compound 0.00316 µM) 102% | viability, T/C (second compound 0.1 µM, first compound 0.01 µM) 104% | viability, T/C [1] 102% | viability, T/C [2] 74.7% | viability, T/C [3] 48.8% | viability, T/C [4] 32.7% | viability, T/C (second compound 0.316 µM, first compound 0.00316 µM) 104% | viability, T/C (second compound 0.316 µM, first compound 0.01 µM) 90.8% | viability, T/C [7] 88.8% | viability, T/C [8] 71.5% | viability, T/C [9] 53.6% | viability, T/C [10] 30.4% | viability, T/C (second compound 1 µM, first compound 0.00316 µM) 95% | viability, T/C (second compound 1 µM, first compound 0.01 µM) 95.4% | viability, T/C [13] 87.6% | viability, T/C [14] 65.8% | viability, T/C [15] 46.6% | viability, T/C [16] 31.5% | viability, T/C (second compound 3.16 µM, first compound 0.00316 µM) 78.8% | viability, T/C (second compound 3.16 µM, first compound 0.01 µM) 88.3% | viability, T/C [19] 73.8% | viability, T/C [20] 67.5% | viability, T/C [21] 49.8% | viability, T/C [22] 31.6% | viability, T/C (second compound 10 µM, first compound 0.00316 µM) 74.3% | viability, T/C (second compound 10 µM, first compound 0.01 µM) 81.2% | viability, T/C [25] 71% | viability, T/C [26] 64.4% | viability, T/C [27] 50.8% | viability, T/C [28] 35%
6.51: pIC50 (second compound 3.16 µM)
6.49: pIC50 (second compound 10 µM)
6.61: pIC50 (second compound 1 µM)
6.42: pIC50 (second compound 0.316 µM)
6.56: pIC50 (second compound 0.1 µM)

CC1COCCN1c1cc(C2(S(C)(=N)=O)CC2)nc(-c2ccnc3[nH]ccc23)n1 (stereo not given) + Cc1ccccc1N=Nc1ccc(NC(=O)c2ccnn2C)c(C)c1
inactive: viability, T/C [1] 97.8% | viability, T/C [2] 96.8% | viability, T/C [3] 98.3% | viability, T/C [4] 90.4% | viability, T/C [5] 68.5% | viability, T/C [6] 34.9% | viability, T/C [7] 84.1% | viability, T/C [8] 89.5% | viability, T/C [9] 90.3% | viability, T/C [10] 80.2% | viability, T/C [11] 59% | viability, T/C [12] 32.8% | viability, T/C [13] 91.3% | viability, T/C [14] 83.5% | viability, T/C [15] 95% | viability, T/C [16] 84.6% | viability, T/C [17] 53.4% | viability, T/C [18] 34.8% | viability, T/C [19] 72.7% | viability, T/C [20] 78.2% | viability, T/C [21] 76.5% | viability, T/C [22] 68.6% | viability, T/C [23] 57.3% | viability, T/C [24] 33.2% | viability, T/C [25] 73.8% | viability, T/C [26] 69.3% | viability, T/C [27] 68.7% | viability, T/C [28] 66% | viability, T/C [29] 56.5% | viability, T/C [30] 40.8%
5.41: pIC50 (second compound 1 µM)
5.23: pIC50 (second compound 0.1 µM)
5.29: pIC50 (second compound 10 µM)
5.33: pIC50 (second compound 0.316 µM)
5.34: pIC50 (second compound 3.16 µM)

COc1ccc([C@@H](O)c2cc(-c3ncnc4cc(N5CCOCC5)ccc34)c(F)cc2Cl)nn1 + Cc1ccccc1N=Nc1ccc(NC(=O)c2ccnn2C)c(C)c1
5.13: pIC50 (second compound 10 µM)
< 5.00: pIC50 (second compound 0.1 µM) | pIC50 (second compound 0.316 µM) | pIC50 (second compound 1 µM)
inactive: viability, T/C [1] 109% | viability, T/C [2] 110% | viability, T/C [3] 98.5% | viability, T/C [4] 96.8% | viability, T/C [5] 80.7% | viability, T/C [6] 65.2% | viability, T/C [7] 94.3% | viability, T/C [8] 99.9% | viability, T/C [9] 89.8% | viability, T/C [10] 83.4% | viability, T/C [11] 74.9% | viability, T/C [12] 58.6% | viability, T/C [13] 100% | viability, T/C [14] 87.6% | viability, T/C [15] 93% | viability, T/C [16] 84.1% | viability, T/C [17] 72.2% | viability, T/C [18] 55.4% | viability, T/C [19] 83.5% | viability, T/C [20] 83.5% | viability, T/C [21] 75.7% | viability, T/C [22] 65.1% | viability, T/C [23] 57.4% | viability, T/C [24] 48.8% | viability, T/C [25] 72.7% | viability, T/C [26] 81.1% | viability, T/C [27] 72.7% | viability, T/C [28] 66.6% | viability, T/C [29] 59.2% | viability, T/C [30] 47%
5.05: pIC50 (second compound 3.16 µM)

O=C(C=Cn1cnc(-c2cc(C(F)(F)F)cc(C(F)(F)F)c2)n1)NNc1cnccn1 + Cc1ccccc1N=Nc1ccc(NC(=O)c2ccnn2C)c(C)c1
6.77: pIC50 (second compound 0.316 µM)
6.84: pIC50 (second compound 3.16 µM)
6.76: pIC50 (second compound 0.1 µM) | pIC50 (second compound 10 µM)
inactive: viability, T/C (second compound 0.1 µM, first compound 0.00949 µM) 91.4% | viability, T/C (second compound 0.1 µM, first compound 0.03 µM) 95.5% | viability, T/C (second compound 0.1 µM, first compound 0.0949 µM) 62.7% | viability, T/C (second compound 0.1 µM, first compound 0.3 µM) 35.8% | viability, T/C (second compound 0.1 µM, first compound 0.949 µM) 19.1% | viability, T/C (second compound 0.1 µM, first compound 3 µM) 8.4% | viability, T/C (second compound 0.316 µM, first compound 0.00949 µM) 90.4% | viability, T/C (second compound 0.316 µM, first compound 0.03 µM) 90.6% | viability, T/C (second compound 0.316 µM, first compound 0.0949 µM) 67.8% | viability, T/C (second compound 0.316 µM, first compound 0.3 µM) 32.1% | viability, T/C (second compound 0.316 µM, first compound 0.949 µM) 19.9% | viability, T/C (second compound 0.316 µM, first compound 3 µM) 11.9% | viability, T/C (second compound 1 µM, first compound 0.00949 µM) 86.4% | viability, T/C (second compound 1 µM, first compound 0.03 µM) 79.8% | viability, T/C (second compound 1 µM, first compound 0.0949 µM) 65.6% | viability, T/C (second compound 1 µM, first compound 0.3 µM) 37.1% | viability, T/C (second compound 1 µM, first compound 0.949 µM) 18.6% | viability, T/C (second compound 1 µM, first compound 3 µM) 10.7% | viability, T/C (second compound 3.16 µM, first compound 0.00949 µM) 84.7% | viability, T/C (second compound 3.16 µM, first compound 0.03 µM) 72% | viability, T/C (second compound 3.16 µM, first compound 0.0949 µM) 58.2% | viability, T/C (second compound 3.16 µM, first compound 0.3 µM) 37.5% | viability, T/C (second compound 3.16 µM, first compound 0.949 µM) 23.4% | viability, T/C (second compound 3.16 µM, first compound 3 µM) 16.3% | viability, T/C (second compound 10 µM, first compound 0.00949 µM) 78.4% | viability, T/C (second compound 10 µM, first compound 0.03 µM) 78.7% | viability, T/C (second compound 10 µM, first compound 0.0949 µM) 62.5% | viability, T/C (second compound 10 µM, first compound 0.3 µM) 37.2% | viability, T/C (second compound 10 µM, first compound 0.949 µM) 26.7% | viability, T/C (second compound 10 µM, first compound 3 µM) 18.6%
6.75: pIC50 (second compound 1 µM)
